From ChEMBL document CHEMBL1157396, “Dihydroagarofuranoid sesquiterpenes, a lignan derivative, a benzenoid, and antitubercular constituents from the stem of Microtropis japonica” (2008)
In brackets after ≈: the same amount, converted by molar mass.

Tested on: Mycobacterium tuberculosis
Experiment: Antitubercular activity against Mycobacterium tuberculosis H37Rv after 2 weeks by agar dilution method
Type: functional
Settings: 336 h

COc1cc(/C=C/C=O)ccc1O [CONIFERYL ALDEHYDE] and COc1cc(C=O)ccc1O [VANILLIN] cannot be ordered by MIC: > 400 µM for the first, > 400 µM for the second.

Compared with CC(=O)O[C@@H]1[C@H]2C[C@H](OC(=O)c3ccccc3)[C@]3(COC(=O)c4ccccc4)[C@@H](OC(C)=O)[C@@H](OC(=O)c4ccccc4)C[C@@H](C)[C@@]13OC2(C)C [FOKIENAGAROFURAN A], CC(=O)OC[C@]12[C@@H](OC(=O)c3ccccc3)C[C@@H]3[C@@H](OC(=O)c4ccccc4)[C@]1(OC3(C)C)[C@H](C)C[C@H](OC(=O)c1ccccc1)[C@@H]2OC(C)=O is 2.2-fold lower in MIC: 85.9 µM (≈ 60 µg/mL) for the first, 39.6 µM (≈ 27.7 µg/mL) for the second.

First: CN1CCCC1=O [METHYLPYRROLIDONE]
Second: COc1cc(C(=O)O)ccc1O [VANILLIC ACID]
The MIC of the first is higher: > 400 µM for the first, 238 µM (≈ 40 µg/mL) for the second.

COc1cc(C(=O)C(CO)c2ccc(O)c(OC)c2)ccc1O (stereo not drawn) [EVOFOLIN B] and COc1cc(C(=O)C(CO)c2cc(OC)c(O)c(OC)c2)ccc1O (stereo not drawn) [5-METHOXYEVOFOLIN B] are within 1.5-fold of each other in MIC: 235 µM (≈ 74.8 µg/mL) for the first, 215 µM (≈ 74.9 µg/mL) for the second.

Going from COc1cc(O)c2c(c1)O[C@H](c1ccc(O)cc1)CC2=O [SAKURANETIN] to COc1cc2ccc(=O)oc2cc1OC [SCOPARONE], the MIC rises from 209 µM (≈ 59.8 µg/mL) to 388 µM (≈ 80 µg/mL) (1.9-fold).

COc1cc(C=O)cc(OC)c1O [SYRINGALDEHYDE] and CCOc1cc(C=O)ccc1O [ETHYL VANILLIN] cannot be ordered by MIC: > 400 µM for the first, > 400 µM for the second.

CC(=O)OC[C@]12[C@@H](OC(=O)c3ccccc3)C[C@@H]3[C@@H](OC(C)=O)[C@]1(OC3(C)C)[C@H](C)C[C@H](O)[C@@H]2OC(C)=O [SALASOL A] and CC(=O)OC[C@]12[C@@H](OC(=O)c3ccccc3)C[C@@H]3[C@@H](OC(C)=O)[C@]1(OC3(C)C)[C@H](C)C[C@H](OC(C)=O)[C@@H]2O [CELAHIN C] are within 1.5-fold of each other in MIC: 28.2 µM (≈ 15 µg/mL) for the first, 31.3 µM (≈ 16.7 µg/mL) for the second.

CC(=O)O[C@H]1C[C@@H](COC(=O)c2ccccc2)[C@]23OC(C)(C)[C@H](C[C@H](OC(=O)c4ccccc4)[C@]2(C)[C@H]1OC(C)=O)[C@H]3OC(=O)c1ccccc1 and CC(=O)O[C@H]1[C@@H](OC(=O)c2ccccc2)C[C@@H](C)[C@]23OC(C)(C)[C@H](C[C@H](OC(=O)c4ccccc4)[C@]12COC(=O)c1ccccc1)[C@H]3OC(=O)c1ccccc1 [FOKIENAGAROFURAN D] are within 1.5-fold of each other in MIC: 95 µM (≈ 66.4 µg/mL) for the first, 105 µM (≈ 79.9 µg/mL) for the second.

Compared with CC[C@@H](CO)NCCN[C@@H](CC)CO [ETHAMBUTOL], COc1cc(C(=O)CCO)ccc1O is 5-fold higher in MIC: 30.6 µM (≈ 6.25 µg/mL) for the first, 153 µM (≈ 30 µg/mL) for the second.

COc1cc(/C=C/C(=O)OC[C@H](Cc2ccc(O)c(OC)c2)[C@H](COC(=O)/C=C/c2ccc(O)c(OC)c2)Cc2ccc(O)c(OC)c2)ccc1O and COc1cc(/C=C\C(=O)OC[C@H](Cc2ccc(O)c(OC)c2)[C@H](COC(=O)/C=C\c2ccc(O)c(OC)c2)Cc2ccc(O)c(OC)c2)ccc1O are within 1.5-fold of each other in MIC: 126 µM (≈ 90.1 µg/mL) for the first, 122 µM (≈ 87.2 µg/mL) for the second.

Going from CC[C@H](CC[C@@H](C)[C@H]1CC[C@H]2[C@@H]3C(=O)C=C4C[C@@H](O)CC[C@]4(C)[C@H]3CC[C@]12C)C(C)C to CC[C@H](CC[C@@H](C)[C@H]1CC[C@H]2[C@@H]3CC=C4C[C@@H](O)CC[C@]4(C)[C@H]3CC[C@]12C)C(C)C [BETA-SITOSTEROL], the MIC rises from 128 µM (≈ 54.9 µg/mL) to > 400 µM.

CC(=O)O[C@H]1C[C@@H](C)[C@]23OC(C)(C)[C@H]([C@H](OC(=O)c4ccccc4)[C@H](OC(=O)c4ccccc4)[C@]2(COC(=O)c2ccccc2)[C@H]1OC(C)=O)[C@H]3OC(C)=O gave an MIC of 79.3 µM (≈ 60 µg/mL).
